Laboratory results: paper PMC6693348 (Journal of medicinal chemistry, 2019)
Where two headings read alike, the source gives them in different places.

Experiments:
EGFR protein ECD = EGFR protein ECD (Homo sapiens, UniProt P00533); experiment: Surface plasmon resonance with immobilized EGFR; format: binding; conditions: analyte 0–300 μM
[1] = reference standard; cited from earlier work
[2] = system: epidermal growth factor receptor (EGFR); conditions: cited from earlier work

Compound: 8-(3,5-Dimethoxyphenyl)-bis(3-p-isothio-cyanato phenyl)-BODIPY [BODIPY 10]
- specificity of binding to EGFR ECD (sensorgrams) (EGFR protein ECD): nonspecific binding or weak binding

Compound: CN(C)c1ccc2nc3ccc(=[N+](C)C)cc-3sc2c1 [methylene blue]
- ΦF (fluorescence quantum yield) [1]: 0.035

Compound: LARLLT [D4]
- affinity for EGFR ([2]; both in vitro and in vivo): high affinity

Compound: YHWY-GYTPQNVI [GE11]
- affinity for EGFR ([2]; both in vitro and in vivo): high affinity

Compound: cyclo(K(N3)larllt)
- affinity for EGFR [2]: high affinity
